Test [1] concerns the target T1, SARS-CoV-2 PLpro (nsp3 1564–1878) (Severe acute respiratory syndrome coronavirus 2, UniProt P0DTD1). Nature of the test: biochemical. To be noted: high concentration screen, read-out: % of control remaining. Set-up: FRET-quenched peptide (Pro3) cleavage by PLpro, 10 min pre-incubation, slope over 20 min, normalised to no-compound control.
Procedure: (§1) The plates were organized with columns 3–22 containing the compounds; the remaining columns were used for reaction controls including substrate only and substrate with enzyme but no compound (Figure 3Aii). The PLpro enzyme was pre-incubated with the compounds for 10 min, and then the reaction was initiated by the addition of substrate. […] We incubated the inhibitors with PLpro before the enzymatic reaction so that the slow-binding inhibitors will not be missed out [21]. […] Fluorescence was read on a Spark multimode microplate reader (Tecan) with an excitation wavelength at 330 nm and emission wavelength at 420 nm. […] An amount of 5 µl of the enzyme was pre-incubated with compounds for 10 min before the addition of 15 µl substrate. Fluorescence was monitored at 2 min for 20 min with 3 min intervals giving a total of seven readings.
Test [2] deals with T1, SARS-CoV-2 PLpro (nsp3 1564–1878). Nature of the test: biochemical. Set-up: FRET-quenched peptide (Pro3) cleavage by PLpro, 10 min pre-incubation, slope over 20 min, normalised to no-compound control. Particulars: low concentration screen, read-out: % of control remaining.
Procedure: as §1

Counter-ions that a name gives are not always drawn. Like-named read-outs stand apart in the source and are kept apart here.

With `CCCC(=O)O` [Sodium butyrate], in test [1] (Well no.=4674), the remaining activity at 3.75 µM was 90%. Besides, the remaining activity at 1.25 µM in test [2] (Well no.=4674) was 94.4%.

As for `COc1ccc(-c2cc(=S)ss2)cc1` [Anethole trithione], the remaining activity at 3.75 µM in test [1] (Well no.=4132) amounted to 96.6%. Besides, the remaining activity at 1.25 µM in test [2] (Well no.=4132) worked out at 93.9%.

As to `N#CCNC(=O)c1ccc(-c2ccnc(Nc3ccc(N4CCOCC4)cc3)n2)cc1` [CYT11387], the remaining activity at 3.75 µM in test [1] (Well no.=2753) came out at 99.6%. The remaining activity at 1.25 µM in test [2] (Well no.=2753) was determined as 98.6%.

Regarding `CCCN1CC[C@@H]2c3cc(O)ccc3CC[C@@H]21`, in test [1] (Well no.=1044), the remaining activity at 3.75 µM is 100%. Moreover, the remaining activity at 1.25 µM in test [2] (Well no.=1044) came out at 98.9%.

For `Cc1nc(N=Nc2cc(S(=O)(=O)O)c3cc([N+](=O)[O-])cc(S(=O)(=O)O)c3c2)c(COP(=O)(O)O)c(C=O)c1O` [PPNDS tetrasodium], the remaining activity at 3.75 µM in test [1] (Well no.=1048) stood at 103%. The remaining activity at 1.25 µM in test [2] (Well no.=1048) worked out at 102%.

Turning to `Cn1cnc(N)c2ncnc1-2` [3-Methyladenine], in test [1] (Well no.=7447), the remaining activity at 3.75 µM was determined as 106%. The remaining activity at 1.25 µM in test [2] (Well no.=5079) was 104%; in test [2] (Well no.=7447), 103%.

Consider `COc1cccc2c1C(=O)c1c(O)c3c(c(O)c1C2=O)C[C@@](O)(C(C)=O)C[C@@H]3O[C@H]1C[C@H](N)[C@H](O)[C@H](C)O1` [Daunorubicin], for which the values for the remaining activity at 3.75 µM in test [1] (Well no.=1708) and in test [1] (Well no.=3221) were 97.4% and 104%, respectively. Further, the remaining activity at 1.25 µM is 96.8% in test [2] (Well no.=1708) and 103% in test [2] (Well no.=3221).

In the case of `Cn1ccnc1S` [Methimazole], the remaining activity at 3.75 µM in test [1] (Well no.=1961) came out at 94.6%. In test [2] (Well no.=1961), the remaining activity at 1.25 µM was found to be 92.6%.

Consider `CNC(=O)c1ccc2cc([C@@]3(O)CCn4cncc43)ccc2c1` [TAK-700 (Orteronel)], for which the remaining activity at 3.75 µM in test [1] (Well no.=4725) worked out at 96.7%. Moreover, the remaining activity at 1.25 µM in test [2] (Well no.=4725) stood at 98.2%.

Regarding `O=[N+]([O-])c1ccc(S(=O)(=O)NCc2ccccc2)c([N+](=O)[O-])c1` [N-Benzyl-2,4-dinitrobenzenesulfonamide], the remaining activity at 3.75 µM in test [1] (Well no.=6125) is 102%. In test [2] (Well no.=6125), the remaining activity at 1.25 µM was determined as 98.4%.

Turning to `CCCCCCCCCCCCC(O)C(=O)O` (stereo not shown) [2-Hydroxymyristic acid], in test [1] (Well no.=4353), the remaining activity at 3.75 µM was 102%. In addition, the remaining activity at 1.25 µM in test [2] (Well no.=4353) amounted to 103%.

Turning to `Nc1nc(NCCNc2ncc(-n3ccnc3)c(-c3ccc(Cl)cc3Cl)n2)ccc1[N+](=O)[O-]` [CHIR-98014], the remaining activity at 3.75 µM in test [1] (Well no.=5035) was 96.8%. Besides, in test [2] (Well no.=5035), the remaining activity at 1.25 µM came to 101%.

Take `CC[C@@H](C(=O)O)[C@@H]1O[C@@H]([C@@H](C)[C@H](O)[C@H](C)C(=O)[C@H](CC)[C@H]2O[C@]3(C=C[C@@H](O)[C@]4(CC[C@@](C)([C@H]5CC[C@](O)(CC)[C@H](C)O5)O4)O3)[C@H](C)C[C@@H]2C)[C@@H](C)C[C@@H]1C` [Narasin]: the remaining activity at 3.75 µM in test [1] (Well no.=3258) stood at 96%. Besides, the remaining activity at 1.25 µM in test [2] (Well no.=3258) was 94.4%.

Consider `O=C(/C=C/c1ccc(Cl)cc1)N1CCC2(CC1)CN(Cc1ccc(Cl)c(Cl)c1)C(=O)O2` [GSK682753A], for which the remaining activity at 3.75 µM in test [1] (Well no.=7054) was determined as 101%. The remaining activity at 1.25 µM in test [2] (Well no.=7054) came out at 107%.

On to `Cc1ccc(-c2ncc(Cl)cc2-c2ccc(S(C)(=O)=O)cc2)cn1` [Etoricoxib], for which the remaining activity at 3.75 µM in test [1] (Well no.=1925) came out at 106%. The remaining activity at 1.25 µM in test [2] (Well no.=1925) stood at 106%.

Regarding `CCCN(CCc1cccs1)C1CCc2c(O)cccc2C1` (racemic) [rac-Rotigotine (Hydrochloride)], the remaining activity at 3.75 µM in test [1] (Well no.=6809) amounted to 95.7%. Further, in test [2] (Well no.=6809), the remaining activity at 1.25 µM is 98.8%.

For the compound `CC(C)C[C@@H](C(=O)O)N(C)C(=O)OCC1c2ccccc2-c2ccccc21` [Fmoc-N-Me-Leu-OH], the remaining activity at 3.75 µM in test [1] (Well no.=7972) worked out at 94.1%. The remaining activity at 1.25 µM in test [2] (Well no.=7972) amounted to 92.7%.

`Cc1ccccc1C(=O)Nc1ccc(C(=O)N2CCCC(N(C)C)c3ccccc32)cc1` (stereo not shown) [Mozavaptan]: the remaining activity at 3.75 µM in test [1] (Well no.=4936) turned out to be 101%; in test [1] (Well no.=6515), 96.3%. The remaining activity at 1.25 µM in test [2] (Well no.=4936) turned out to be 101%; in test [2] (Well no.=6515), 93.2%.

For the compound `CN(C)CCc1c[nH]c2ccc(CS(=O)(=O)N3CCCC3)cc12` [Almotriptan (malate)], in test [1] (Well no.=6271), the remaining activity at 3.75 µM came to 106%. In addition, in test [2] (Well no.=6271), the remaining activity at 1.25 µM was 106%.

As to `CC(=O)OCC1=C[C@H]2[C@@H]3C(C)(C)[C@]3(OC(=O)Cc3ccccc3)C[C@@H](C)[C@]2(O)[C@@H]2C=C(C)C(=O)[C@@]2(O)C1` [12-Deoxyphorbol 13-phenylacetate 20-acetate], the remaining activity at 3.75 µM in test [1] (Well no.=3229) was 105%. For the same compound, the remaining activity at 1.25 µM in test [2] (Well no.=3229) came out at 107%.

For `Cc1cc2c(cc1CC(=O)c1sccc1S(=O)(=O)Nc1onc(C)c1Cl)OCO2` [Sitaxentan sodium (TBC-11251)], in test [1] (Well no.=4887), the remaining activity at 3.75 µM worked out at 98.3%. Also, in test [2] (Well no.=4887), the remaining activity at 1.25 µM worked out at 95.6%.

Consider `O=C(O)c1ccc2c3c1cccc3c(=O)n1c3ccccc3nc21` [STO-609], for which the remaining activity at 3.75 µM in test [1] (Well no.=2658) is 89.5%. Moreover, in test [2] (Well no.=2658), the remaining activity at 1.25 µM came to 90%.

For the compound `CC(C)[N+]1(C)[C@@H]2CC[C@H]1C[C@@H](OC(=O)C(CO)c1ccccc1)C2` (stereo partly shown) [Ipratropium bromide], the remaining activity at 3.75 µM in test [1] (Well no.=526) was 103%. In addition, in test [2] (Well no.=526), the remaining activity at 1.25 µM came out at 105%.

As to `Oc1ccccc1O` [Pyrocatechol], the remaining activity at 3.75 µM in test [1] (Well no.=190) is 98%. Moreover, in test [2] (Well no.=190), the remaining activity at 1.25 µM came out at 101%.

Consider `NC(=O)c1noc([C@H](CCCC2CCCCC2)CC(=O)NO)n1` [UK 383367], for which the remaining activity at 3.75 µM in test [1] (Well no.=8384) was found to be 90.6%. Also, the remaining activity at 1.25 µM in test [2] (Well no.=8384) is 90.4%.

Take `N[C@@H]1C[C@H]1c1ccccc1` [Tranylcypromine hydrochloride]: in test [1] (Well no.=1399), the remaining activity at 3.75 µM is 105%. The remaining activity at 1.25 µM in test [2] (Well no.=1399) amounted to 100%.

On to `CN(C)[C@@H](CCOc1cccc2ccccc12)c1ccccc1` [Dapoxetine hydrochloride], for which, in test [1] (Well no.=5853), the remaining activity at 3.75 µM worked out at 91%. Further, the remaining activity at 1.25 µM in test [2] (Well no.=5853) was determined as 94.2%.

For `C=CC(=O)N1CCC[C@@H](n2nc(-c3ccc(Oc4ccccc4)cc3)c3c(N)ncnc32)C1` [PCI-32765 (Ibrutinib)], the remaining activity at 3.75 µM in test [1] (Well no.=4649) is 88.8%. Besides, the remaining activity at 1.25 µM in test [2] (Well no.=4649) was 96%.

Turning to `COc1cc([C@@H]2c3cc4c(cc3[C@H](O)[C@H]3COC(=O)[C@H]23)OCO4)cc(OC)c1OC` [Podophyllotoxin], the remaining activity at 3.75 µM in test [1] (Well no.=1002) was found to be 92.3%; in test [1] (Well no.=3705), 105%. The values for the remaining activity at 1.25 µM in test [2] (Well no.=1002) and in test [2] (Well no.=3705) were 91.2% and 99.5%, respectively.

For the compound `Cc1cc(Nc2cc(N3CCN(C)CC3)nc(/C=C/c3ccccc3)n2)n[nH]1` [ENMD-2076], the remaining activity at 3.75 µM in test [1] (Well no.=5093) was found to be 105%. Further, in test [2] (Well no.=5093), the remaining activity at 1.25 µM stood at 102%.

The values above are taken from paper PMC8286840, “Identifying SARS-CoV-2 antiviral compounds by screening for small molecule inhibitors of Nsp3 papain-like protease” (Biochemical Journal, 2021).
